Data set [1] deals with T1, NLRP3 (Homo sapiens, UniProt Q96P20). Kind of data set: Human whole blood IL1β release assay. The class given is cell-based. Particulars: LPS 1 μg/ml, nigericin 10 μM, IL-1β AlphaLisa, 10 μM top dose (Example 2: top dose of 30 μM), read-out: HWB IC50. The protocol:
For systemic delivery, the ability to inhibit NLRP3 when the compounds are present within the bloodstream is of great importance. For this reason, the NLRP3 inhibitory activity of a number of compounds in human whole blood was investigated in accordance with the following protocol.
Human whole blood in sodium-heparin or lithium-heparin tubes was obtained from healthy donors from a volunteer donor panel. • 1. Plate out 80 μl of whole blood containing 1 μg/ml of LPS in 96-well, clear bottom cell culture plate (Corning #3585) • 2. Add 10 μl compound (8 points half-log dilution with 10 μM top dose, unless stated otherwise) or vehicle (DMSO 0.1% FAC) to the appropriate wells • 3. Incubate for 3 hrs at 37° C., 5% CO2 • 4. Add 10 μl nigericin (Sigma #N7143) (10 μM FAC) to all wells • 5. Incubate for 1 hr at 37° C., 5% CO2 • 6. At the end of the incubation period, spin plates at 300×g for 5 mins to pellet cells and remove 20 μl of supernatant and add to 96-well v-bottom plates for IL-1β analysis (note: these plates containing the supernatants can be stored at −80° C. to be analysed at a later date) • 7. IL-1β was measured according to the manufacturer protocol (Perkin Elmer-AlphaLisa IL-1 Kit AL220F-5000) • 8. IC50 data is fitted to a non-linear regression equation (log inhibitor vs response-variable slope 4-parameters)
For orientation: Bead proximity is the source of the signal in Alpha formats.

Data set [2] addresses T1, NLRP3. Put plainly: THP-1 cells pyroptosis assay. The class given is cell-based. Also on record: Seed THP-1 cells (25,000 cells/well) containing 1.0 μg/ml LPS; host or cells: THP-1. Particulars: LPS 1.0 μg/ml, nigericin 5 μM, resazurin readout, 10 μM top dose (Example 2: top dose of 30 μM). The method in brief:
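Pyroptosis induced by 5 μM nigericin (1 h) in LPS-primed (1 μg/ml) THP-1 cells, 25,000/well in serum-free RPMI, after 3 h compound pre-treatment (8 points, 10 μM top unless stated). Surviving cells measured with 100 μM resazurin, Ex 560/Em 590; IC50 via variable-slope 4-parameter regression.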
(Resazurin is reduced to fluorescent resorufin, in cell work by metabolically active cells.)

The nature of data set [3]: PK, intravenous administration. Particulars: rat, plasma, male Sprague Dawley rats, dose about 1 mg/kg; for Vd: read-out: Vdss. The class given is in vivo. The protocol: Pharmacokinetic parameters were determined in male Sprague Dawley rats (Vital River Laboratory Animal Technology Co Ltd, Beijing, China, 6-9 weeks old). Animals were maintained under a 12 h light/dark cycle. Animals had free access to food and water, except that orally dosed animals were food deprived overnight prior to the study.
For intravenous administration, compounds were formulated as a solution (in DMSO:water [10:90] or in DMSO:PBS [10:90]) in 2 mL/kg dosing volume and administered via tail vein. For oral administration, compounds were formulated as a solution (in 0.5% methylcellulose in water) in […] dosing volume and administered orally.
Serial blood samples (about 200 μL) were taken from each animal at each of 8 time-points post dose ([…], 0.25, 0.5, 1, 2, 4, 8 and 24 h). Samples were held on ice for no longer than 30 minutes before centrifugation (5,696 rpm (3,000 g) for 15 minutes) for plasma generation. Plasma was frozen on dry ice prior to bioanalysis. PK parameters were generated from LC-MS/MS data using Phoenix WinNonlin 6.3 software.

The results in this text go back to patent US20210261512A1, “NOVEL COMPOUNDS” (INFLAZOME LIMITED, priority 2018, published 2021).

T1 sequence (Q96P20 whole entry): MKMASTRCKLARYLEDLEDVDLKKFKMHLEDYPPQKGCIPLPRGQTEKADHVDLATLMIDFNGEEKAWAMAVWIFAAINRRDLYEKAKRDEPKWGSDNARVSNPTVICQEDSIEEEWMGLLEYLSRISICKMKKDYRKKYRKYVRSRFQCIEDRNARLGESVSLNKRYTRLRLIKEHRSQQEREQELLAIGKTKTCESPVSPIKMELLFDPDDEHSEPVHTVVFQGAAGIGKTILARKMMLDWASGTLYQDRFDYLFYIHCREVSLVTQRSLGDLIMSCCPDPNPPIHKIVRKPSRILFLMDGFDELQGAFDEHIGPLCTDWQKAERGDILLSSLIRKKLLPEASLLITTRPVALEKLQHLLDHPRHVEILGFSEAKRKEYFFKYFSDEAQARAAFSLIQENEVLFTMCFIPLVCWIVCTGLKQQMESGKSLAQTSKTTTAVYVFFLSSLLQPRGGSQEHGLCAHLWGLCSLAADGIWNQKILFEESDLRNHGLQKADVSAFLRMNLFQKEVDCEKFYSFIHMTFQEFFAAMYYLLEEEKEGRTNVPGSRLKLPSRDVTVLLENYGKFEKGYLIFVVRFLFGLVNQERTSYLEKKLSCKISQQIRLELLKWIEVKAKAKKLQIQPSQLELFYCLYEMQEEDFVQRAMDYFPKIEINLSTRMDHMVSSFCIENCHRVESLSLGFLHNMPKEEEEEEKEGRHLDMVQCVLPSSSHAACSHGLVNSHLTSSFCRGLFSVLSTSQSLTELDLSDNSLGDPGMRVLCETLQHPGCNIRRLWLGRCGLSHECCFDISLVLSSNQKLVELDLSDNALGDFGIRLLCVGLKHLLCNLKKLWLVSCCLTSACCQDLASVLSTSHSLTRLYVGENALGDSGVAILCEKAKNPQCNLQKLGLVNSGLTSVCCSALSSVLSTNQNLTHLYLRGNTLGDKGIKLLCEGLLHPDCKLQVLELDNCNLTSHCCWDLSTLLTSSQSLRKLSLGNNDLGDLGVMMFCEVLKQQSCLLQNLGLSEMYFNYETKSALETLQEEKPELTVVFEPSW

As a reminder, the IC50 is the concentration that gives 50% inhibition. Regarding `COc1cc(-c2ccc3c(c2Nc2nnc(S(=O)(=O)N4CCC5(CCN5C)CC4)[nH]2)CCC3)ccn1` [Example 204, N-(5-(2-methoxypyridin-4-yl)-2,3-dihydro-1H-inden-4-yl)-5-((1-methyl-1,7-diazaspiro[3.5]nonan-7-yl)sulfonyl)-4H-1,2,4-triazol-3-amine], the figures for the IC50 at NLRP3 [1] and against NLRP3 [2] were no more than 1 µM and no more than 0.5 µM, respectively.
Taken in the same sequence, the figures for `CN1CCC12CCN(S(=O)(=O)c1nnc(Nc3c(-c4ccnc(OC(F)F)c4)ccc4c3CCO4)[nH]1)CC2` [Example 202, N-(5-(2-(difluoromethoxy)pyridin-4-yl)-2,3-dihydrobenzofuran-4-yl)-5-((1-methyl-1,7-diazaspiro[3.5]nonan-7-yl)sulfonyl)-4H-1,2,4-triazol-3-amine] were no more than 1 µM and no more than 0.5 µM.
Taken in the same sequence, the figures for `CN(C)C1CCN(S(=O)(=O)c2nnc(Nc3c(-c4ccncc4)ccc4c3CCO4)[nH]2)CC1` [Example 220, N,N-dimethyl-1-((5-((5-(pyridin-4-yl)-2,3-dihydrobenzofuran-4-yl)amino)-4H-1,2,4-triazol-3-yl)sulfonyl)piperidin-4-amine] were no more than 5 µM and no more than 1 µM.
Taken in the same sequence, the figures for `COc1cc(-c2cc(F)cc(C(C)C)c2Nc2nnc(S(=O)(=O)N3CCC4(CCN4C)CC3)[nH]2)ccn1` [Example 249, N-(4-fluoro-2-isopropyl-6-(2-methoxypyridin-4-yl)phenyl)-5-((1-methyl-1,7-diazaspiro[3.5]nonan-7-yl)sulfonyl)-4H-1,2,4-triazol-3-amine] were no more than 5 µM and no more than 0.5 µM.
In general, AUC refers to concentration integrated over time. The low end stands for low exposure, the high end for high exposure. The term clearance denotes a measure of how efficiently the substance is removed, as volume per time. High values mean a high capacity for elimination, low ones a low capacity for elimination. One may read the half-life as how long it takes for the measured level to halve. Compound `CN1CCC(Oc2cc(-c3ccc4c(c3Nc3nnc(S(C)(=O)=O)[nH]3)CCC4)ccn2)CC1` [Example 235, N-(5-(2-((1-methylpiperidin-4-yl)oxy)pyridin-4-yl)-2,3-dihydro-1H-inden-4-yl)-5-(methylsulfonyl)-4H-1,2,4-triazol-3-amine] showed an IC50 against NLRP3 [2] of no more than 10 µM. Further, in data set [3], the AUC is 430 ng·h/mL, the clearance was found to be 38.7 mL/min/kg, the half-life was 130 min and the Vd was 0.935 L/kg.
In turn, `CN1CCC2(C1)CN(S(=O)(=O)c1nnc(Nc3c(-c4ccnc(OC(F)F)c4)ccc4c3CCC4)[nH]1)C2` [Example 213, N-(5-(2-(difluoromethoxy)pyridin-4-yl)-2,3-dihydro-1H-inden-4-yl)-5-((6-methyl-2,6-diazaspiro[3.4]octan-2-yl)sulfonyl)-4H-1,2,4-triazol-3-amine] showed an IC50 at NLRP3 [2] of no more than 0.5 µM. In data set [3], the AUC turned out to be 186 ng·h/mL, the clearance stood at 90.6 mL/min/kg, the half-life is 43.8 min and the Vd is 4.21 L/kg.
At NLRP3 [2], `O=S(=O)(c1ccccc1)c1nnc(Nc2c3c(cc4c2CCC4)CCC3)[nH]1` [Example 40, N-(1,2,3,5,6,7-hexahydro-s-indacen-4-yl)-5-(phenylsulfonyl)-1H-1,2,4-triazol-3-amine] registered an IC50 of no more than 1 µM. In data set [3], the AUC came to 1460 ng·h/mL, the clearance was 11.4 mL/min/kg, the half-life is 54 min and the Vd is 0.54 L/kg.
Taken in the same sequence, the figures for `Cc1cc(-c2cc(F)cc(C(C)C)c2Nc2nnc(S(=O)(=O)N3CCC(N(C)C)CC3)[nH]2)ccn1` [Example 302, 1-((5-((4-fluoro-2-isopropyl-6-(2-methylpyridin-4-yl)phenyl)amino)-1H-1,2,4-triazol-3-yl)sulfonyl)-N,N-dimethylpiperidin-4-amine] were no more than 5 µM, 153 ng·h/mL, 109 mL/min/kg, 80.4 min and 4.03 L/kg.
Taken in the same sequence, the figures for `COc1cc(-c2ccc3c(c2Nc2nnc(S(=O)(=O)c4ccccc4C#N)[nH]2)CCC3)ccn1` [Example 310, 2-((5-((5-(2-methoxypyridin-4-yl)-2,3-dihydro-1H-inden-4-yl)amino)-4H-1,2,4-triazol-3-yl)sulfonyl)benzonitrile] were no more than 5 µM, 221 ng·h/mL, 75.4 mL/min/kg, 27.5 min and 1.45 L/kg.
The matching figures for `Cn1cc(S(=O)(=O)c2nnc(Nc3c4c(cc5c3CCC5)CCC4)[nH]2)cn1` [Example 159, N-(1,2,3,5,6,7-hexahydro-s-indacen-4-yl)-5-((1-methyl-1H-pyrazol-4-yl)sulfonyl)-4H-1,2,4-triazol-3-amine]: no more than 5 µM, 2250 ng·h/mL, 6.9 mL/min/kg, 55.8 min and 0.38 L/kg.
In turn, `CN1CCOCC12CCN(S(=O)(=O)c1nnc(Nc3c4c(cc5c3CCC5)CCC4)[nH]1)CC2` [Example 296, N-(1,2,3,5,6,7-hexahydro-s-indacen-4-yl)-5-((1-methyl-4-oxa-1,9-diazaspiro[5.5]undecan-9-yl)sulfonyl)-4H-1,2,4-triazol-3-amine] yielded an IC50 on NLRP3 [2] of no more than 0.5 µM. In addition, in data set [3], the AUC came to 315 ng·h/mL, the clearance was found to be 52.9 mL/min/kg, the half-life is 35.4 min and the Vd amounted to 1.7 L/kg.
For `CC(C)c1cc(F)cc(C(C)C)c1Cc1nnc(S(=O)(=O)Cc2ccc(F)cc2)[nH]1` [Example 28, 3-(4-fluoro-2,6-diisopropylbenzyl)-5-((4-fluorobenzyl)sulfonyl)-4H-1,2,4-triazole], on NLRP3 [2], the IC50 was no more than 10 µM.
On the same count and under the same terms, under `CN1CCCC(CS(=O)(=O)c2nnc(Nc3c4c(cc5c3CCC5)CCC4)[nH]2)C1` (centres unmarked) [Example 58, N-(1,2,3,5,6,7-hexahydro-s-indacen-4-yl)-3-(((1-methylpiperidin-3-yl)methyl)sulfonyl)-1H-1,2,4-triazol-5-amine] stands no more than 5 µM; under `O=S(=O)(c1ccccc1)c1nc(Nc2c(-c3cccnc3)cc(F)c3c2CCC3)n[nH]1` [Example 41, N-(7-fluoro-5-(pyridin-3-yl)-2,3-dihydro-1H-inden-4-yl)-5-(phenylsulfonyl)-1H-1,2,4-triazol-3-amine], no more than 10 µM; under `COc1cc(-c2ccc3c(c2Cc2nnc(S(=O)(=O)c4ccn(C(C)C)n4)[nH]2)CCC3)ccn1` [Example 32, 4-(4-((5-((1-isopropyl-H-pyrazol-3-yl)sulfonyl)-4H-1,2,4-triazol-3-yl)methyl)-2,3-dihydro-1H-inden-5-yl)-2-methoxypyridine], no more than 5 µM.
`CS(=O)(=O)c1nnc(Nc2c(-c3ccnc(OC4CCCOC4)c3)ccc3c2CCC3)[nH]1` (centres unmarked) [Example 236, 5-(methylsulfonyl)-N-(5-(2-((tetrahydro-2H-pyran-3-yl)oxy)pyridin-4-yl)-2,3-dihydro-1H-inden-4-yl)-4H-1,2,4-triazol-3-amine] yielded an IC50 against NLRP3 [2] of no more than 10 µM. Further, in data set [3], the AUC was 3160 ng·h/mL, the clearance was 5.28 mL/min/kg, the half-life was 53.5 min and the Vd is 0.149 L/kg.
Taken in the same sequence, the figures for `CC(C)n1ccc(S(=O)(=O)c2nnc(Nc3c4c(cc5c3CCC5)CCC4)[nH]2)n1` [Example 337, N-(1,2,3,5,6,7-hexahydro-s-indacen-4-yl)-5-((1-isopropyl-1H-pyrazol-3-yl)sulfonyl)-4H-1,2,4-triazol-3-amine] were no more than 0.5 µM, 981 ng·h/mL, 17 mL/min/kg, 35.7 min and 0.54 L/kg.
As to `N#Cc1ccccc1S(=O)(=O)c1nnc(Nc2c3c(cc4c2CCC4)CCC3)[nH]1` [Example 185, 2-((5-((1,2,3,5,6,7-hexahydro-s-indacen-4-yl)amino)-4H-1,2,4-triazol-3-yl)sulfonyl)benzonitrile], the IC50 on NLRP3 [2] was no more than 0.5 µM.
Still for that read-out and setting: under `O=S(=O)(c1nnc(Nc2c3c(cc4c2CCC4)CCC3)[nH]1)C1CNC1` [Example 21, 5-(azetidin-3-ylsulfonyl)-N-(1,2,3,5,6,7-hexahydro-s-indacen-4-yl)-4H-1,2,4-triazol-3-amine] stands no more than 10 µM.
